Source: US5580870A, “Quinazoline derivatives” (Zeneca Limited, priority 1992, dated 1996)
Where two headings read alike, the source gives them in different places.

Assays:
[1] = test system: liver hepatocyte growth; assay: Test (c): in vivo inhibition of TGFα-stimulated liver hepatocyte growth in male rats (BrdU uptake); design: species or system rat; conditions: for ED50: Rattus norvegicus, Hepatocyte, read-out: ED50 in Test (c), inhibition of liver hepatocyte proliferation
Procedure: (c) An in vivo assay in a group of male rats which determines the ability of a test compound (usually administered orally as a ball-milled suspension in 0.5% polysorbate) to inhibit the stimulation of liver hepatocyte growth caused by the administration of the growth factor TGFα (400 μg/kg subcutaneously, usually dosed twice, 3 and 7 hours respectively after the administration of the test compound).
Cell-growth in the control and test animals is determined as follows:
On the morning of the day after the dosing of the test compound (or 0.5% polysorbate in the control group), the animals are dosed with bromodeoxyuridine (BrdU; 100 mg/kg intraperitoneally). The animals are killed four hours later and the livers are excised. […] Further tests were carried out using a range of doses of the test compounds to allow the calculation of an approximate ED50 value for the inhibition of liver hepatocyte proliferation as determined by inhibition of the uptake of BrdU.

[2] = biological target: T1, receptor tyrosine kinase (Homo sapiens, UniProt P00533); assay: Test (a): in vitro receptor tyrosine kinase inhibition (enzyme from A-431 cells, 32P-ATP/peptide phosphorylation, with EGF); format: biochemical
T1 construct: The supernatant, containing solubilised receptor tyrosine kinase, was stored in liquid nitrogen; endogenous in cells; host or cells: A-431 cells (human vulval carcinoma), solubilised membrane fraction
T1 sequence (P00533 25-1210): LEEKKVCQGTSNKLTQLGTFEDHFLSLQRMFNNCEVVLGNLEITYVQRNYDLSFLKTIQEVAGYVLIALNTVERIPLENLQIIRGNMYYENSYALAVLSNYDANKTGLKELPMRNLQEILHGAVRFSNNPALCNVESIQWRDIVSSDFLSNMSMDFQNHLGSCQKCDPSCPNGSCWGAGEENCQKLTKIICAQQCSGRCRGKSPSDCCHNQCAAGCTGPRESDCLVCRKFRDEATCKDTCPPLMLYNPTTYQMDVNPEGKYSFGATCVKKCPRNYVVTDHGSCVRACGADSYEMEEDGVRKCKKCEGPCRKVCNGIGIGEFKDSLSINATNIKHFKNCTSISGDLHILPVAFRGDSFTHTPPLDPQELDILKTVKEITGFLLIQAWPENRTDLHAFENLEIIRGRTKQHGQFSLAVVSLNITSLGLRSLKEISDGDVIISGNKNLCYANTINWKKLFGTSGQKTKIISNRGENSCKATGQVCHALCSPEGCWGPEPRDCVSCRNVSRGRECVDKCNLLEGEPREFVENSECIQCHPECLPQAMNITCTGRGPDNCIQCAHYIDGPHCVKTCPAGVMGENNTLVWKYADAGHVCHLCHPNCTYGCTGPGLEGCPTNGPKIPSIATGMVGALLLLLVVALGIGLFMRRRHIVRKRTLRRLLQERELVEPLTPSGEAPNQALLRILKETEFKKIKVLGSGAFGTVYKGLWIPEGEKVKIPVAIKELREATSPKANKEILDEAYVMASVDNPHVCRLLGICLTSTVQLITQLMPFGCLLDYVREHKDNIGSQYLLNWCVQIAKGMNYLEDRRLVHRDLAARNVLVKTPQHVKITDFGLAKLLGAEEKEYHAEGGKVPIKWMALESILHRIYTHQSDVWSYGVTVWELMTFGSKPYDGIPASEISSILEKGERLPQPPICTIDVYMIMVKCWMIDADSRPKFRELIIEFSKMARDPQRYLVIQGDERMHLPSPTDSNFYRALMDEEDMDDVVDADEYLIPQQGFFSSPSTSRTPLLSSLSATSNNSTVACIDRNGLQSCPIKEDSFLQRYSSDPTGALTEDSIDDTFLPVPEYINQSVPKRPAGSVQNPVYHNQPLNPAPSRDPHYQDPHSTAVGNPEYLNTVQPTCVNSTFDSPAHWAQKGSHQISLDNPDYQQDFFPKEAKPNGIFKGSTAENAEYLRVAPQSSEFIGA
T1 sequence (P01133 971-1023 partner limits assumed): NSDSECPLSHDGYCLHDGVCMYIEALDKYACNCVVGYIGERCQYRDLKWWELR
Procedure: A-431 cells were grown to confluence using Dulbecco's modified Eagle's medium (DMEM) containing 5% fetal calf serum (FCS). The obtained cells were homogenised in a hypotonic borate/EDTA buffer at pH 10.1. The homogenate was centrifuged at 400 g for 10 minutes at 0°-4° C. The supernatant was centrifuged at 25,000 g for 30 minutes at 0°-4° C. The pelleted material was suspended in 30 mM Hepes buffer at pH 7.4 containing 5% glycerol, 4 mM benzamidine and 1% Triton X-100, stirred for 1 hour at 0°-4° C., and recentrifuged at 100,000 g for 1 hour at 0°-4° C. The supernatant, containing solubilised receptor tyrosine kinase, was stored in liquid nitrogen.
For test purposes 40 μl of the enzyme solution so obtained was added to a mixture of 400 μl of a mixture of 150 mM Hepes buffer at pH 7.4, 500 μM sodium orthovanadate, 0.1% Triton X-100, 10% glycerol, 200 μl water, 80 μl of 25 mM DTT and 80 μl of a mixture of 12.5 mM manganese chloride, 125 mM magnesium chloride and distilled water. There was thus obtained the test enzyme solution. […]
The test compound/EGF mixture solution (5 μl) was added to the test enzyme solution (10 μl) and the mixture was incubated at 0°-4° C. for 30 minutes. […] Radioactivity present in the filter paper was measured using a liquid scintillation counter (Sequence A). […]
Receptor tyrosine kinase inhibition was calculated as follows: [formula]

[3] = test system: KB cells; assay: Test (b): in vitro inhibition of growth of human naso-pharyngeal cancer cell line KB (EGF, MTT); format: cell-based; conditions: 72 h, read-out: IC50 in Test (b), inhibition of KB cell growth
Procedure: (b) An in vitro assay which determines the ability of a test compound to inhibit the growth of the human naso-pharyngeal cancer cell line KB.
KB cells were seeded into wells at a density of 1×10^4 -1.5×10^4 cells per well and grown for 24 hours in DMEM supplemented with 5% FCS (charcoal-stripped). Cell growth was determined after incubation for 3 days by the extent of metabolism of MTT tetrazolium dye to furnish a bluish colour. Cell growth was then determined in the presence of EGF (10 ng/ml) or in the presence of EGF (10 ng/ml) and a test compound at a range of concentrations. An IC50 value could then be calculated.

[4] = test system: human mammary carcinoma which expresses epidermal growth factor (EGF) receptor tyrosine kinase; conditions: athymic nude mice; Toi et al., 1990; cited from earlier work
[5] = test system: carcinoma which does not express EGF receptor tyrosine kinase; conditions: Toi et al., 1990; cited from earlier work
[6] = male rats, usually oral, TGFα 400 μg/kg subcutaneously, BrdU uptake

Row | Molecule | IC50 [2] | IC50 ([3]; EGF (10 ng/ml), 3 days, MTT) | ED50 [1, 6] | further results
1 | TGFα: the growth factor TGFα [reference compound] | – | – | – | stimulation of liver hepatocyte growth ([1]; control group of rats, TGFα 400 μg/kg subcutaneously, on average): 5 fold
2 | COc1cc2ncnc(Nc3cccc4ncccc34)c2cc1OC [6,7-dimethoxy-4-(5-quinolylamino)quinazoline] | 60 nM | 1800 nM | ~2 mg/kg | –
3 | COc1cc2ncnc(Nc3ccc4c(c3)CCC4)c2cc1OC [6,7-dimethoxy-4-(5-indanylamino)quinazoline] | – | – | – | IC50 [3]: 650 nM; ED50 ([1]; po): 1 to 5 mg/kg
4 | O=CN/C=C/c1cc(O)ccc1O [erbstatin] | – | – | – | effect on growth of transplanted human mammary carcinoma expressing EGF receptor tyrosine kinase [4]: specifically attenuates the growth; effect on growth of another carcinoma which does not express EGF receptor tyrosine kinase [5]: without effect
5 | COc1cc2ncnc(Nc3ccc4[nH]ccc4c3)c2cc1OC [6,7-dimethoxy-4-(5-indolylamino)quinazoline] | 1 nM | 400 nM | 1 to 5 mg/kg | –
